Laboratory results as given in article PMC8875074, “Development of Bactericidal Peptides against Multidrug-Resistant Acinetobacter baumannii with Enhanced Stability and Low Toxicity” (International Journal of Molecular Sciences, 2022).
Like-named read-outs stand apart in the source and are kept apart here.

Tests used:
[1] = cited from earlier work
From the text: A pair of test peptides, TP2-5 and TP2-6, were selected from a previous design based on tilapia piscidin 2 (TP2). […] Both TP2-5 and TP2-6 are nonhaemolytic and noncytotoxic an ...

A. baumannii 10591 [2] = assay: MIC/MBC antimicrobial assay; assay type: cell-based, Acinetobacter baumannii; details: for MBC: A. baumannii 10591 wild strain, triplicate, two independent experiments
Procedure: (§1) Bacterial cells Acinetobacter baumannii 10591 and 14B0091 were obtained from BCRC Taiwan. All the MDR strains were obtained from the hospital as gifts. The antimicrobial assay was performed as per the standard protocol; 50 µL of 10^6 CFU/mL of mid-log phase bacterial suspension was treated with 50 µL of candidate peptide and meropenem (Sigma: PHR1772) incubated at 37 °C for 960~1200 min. The clear wells corresponding to the lowest concentrations are reported as the minimum inhibitory concentration (MIC). Suspensions from the clear wells were plated on Mueller–Hinton agar (MHA) plates and incubated at 37 °C overnight. The lowest concentration corresponding to no growth was recorded as the minimum bactericidal concentration (MBC). To detect the effect of human serum (H3667, Sigma Aldrich, St. Louis, MO, USA) on the peptides, the media was replaced with 50% human serum-containing media. Similarly, to detect the effect of lung surfactant (SURVANTA®, beractant, AbbVie Inc., Lake Bluff, IL, USA (25 mg/mL)) on the antimicrobial activity of the peptide, the normal media was replaced with 5% lung surfactant-containing media. To analyse the bacterial killing kinetics, after the addition of the peptide to the bacterial suspension, 10 µL of broth was diluted 1000 times, plated at 30 min intervals, and allowed to incubate for 90 min. The bacterial load is expressed as CFU/mL as a function of time.

MDR A. baumannii 14B0091 = assay: MIC/MBC antimicrobial assay; assay type: cell-based, Acinetobacter baumannii; details: MDR strain 14B0091, triplicate, two independent experiments
Procedure: as §1

A. baumannii (10591) = assay: Induced resistance (serial passage) assay; assay type: cell-based, Acinetobacter baumannii; details: 15 cycles, from subinhibitory wells
Procedure: A total of 50 µL of 10^6 CFU/mL bacterial cells were treated with different concentrations of peptide. Bacterial cells from subinhibitory wells were subcultured by passaging for 15 cycles, followed by testing their MIC values. The fold change in MIC was reported in comparison with starting MIC values.

MDR A. baumannii 1033 [3] = assay: MIC/MBC antimicrobial assay; assay type: cell-based; details: Acinetobacter baumannii; MDR strain 1033; normal media; triplicate, two independent experiments
Procedure: as §1

MDR A. baumannii 3618 [4] = assay: MIC/MBC antimicrobial assay; assay type: cell-based; details: Acinetobacter baumannii; MDR strain 3618; normal media; triplicate, two independent experiments
Procedure: as §1

MDR A. baumannii 921 [5] = assay: MIC/MBC antimicrobial assay; assay type: cell-based; details: Acinetobacter baumannii; MDR strain 921; normal media; triplicate, two independent experiments
Procedure: as §1

MDR A. baumannii 1607 [6] = assay: MIC/MBC antimicrobial assay; assay type: cell-based; details: Acinetobacter baumannii; MDR strain 1607; normal media; triplicate, two independent experiments
Procedure: as §1

MDR A. baumannii 2997 [7] = assay: MIC/MBC antimicrobial assay; assay type: cell-based; details: Acinetobacter baumannii; MDR strain 2997; normal media; triplicate, two independent experiments
Procedure: as §1

MDR A. baumannii 1019 [8] = assay: MIC/MBC antimicrobial assay; assay type: cell-based; details: Acinetobacter baumannii; MDR strain 1019; normal media; triplicate, two independent experiments
Procedure: as §1

MDR A. baumannii 2998 [9] = assay: MIC/MBC antimicrobial assay; assay type: cell-based; details: Acinetobacter baumannii; MDR strain 2998; normal media; triplicate, two independent experiments
Procedure: as §1

MDR A. baumannii 1702 [10] = assay: MIC/MBC antimicrobial assay; assay type: cell-based; details: Acinetobacter baumannii; MDR strain 1702; normal media; triplicate, two independent experiments
Procedure: as §1

MDR A. baumannii 2088 [11] = assay: MIC/MBC antimicrobial assay; assay type: cell-based; details: Acinetobacter baumannii; MDR strain 2088; normal media; triplicate, two independent experiments
Procedure: as §1

MDR A. baumannii 2982 [12] = assay: MIC/MBC antimicrobial assay; assay type: cell-based; details: Acinetobacter baumannii; MDR strain 2982; normal media; triplicate, two independent experiments
Procedure: as §1

MDR A. baumannii 2962 [13] = assay: MIC/MBC antimicrobial assay; assay type: cell-based; details: Acinetobacter baumannii; MDR strain 2962; normal media; triplicate, two independent experiments
Procedure: as §1

A. baumannii = assay: Peptide sensitivity to temperature (MIC/MBC after heating); assay type: cell-based, Acinetobacter baumannii
Procedure: as §1
Here, 50 µL of 10^6 CFU/mL bacterial cells were treated with peptide previously incubated at 40, 60, 80, and 100 °C for 1 h. The peptide activity was reported as per the standard MIC and MBC protocols.

MDR A. baumannii 14B001 = assay: Fractional inhibitory concentration (FIC) index assay; assay type: cell-based, Acinetobacter baumannii; details: strain 14B001
Procedure: (§2) A 2-fold dilution of peptide in 50 µL of media was performed along the vertical axis of a 96-well plate. Similarly, 50 µL of the next drug was diluted 2-fold along the horizontal axis. Next, 50 µL of […] was added, and the standard MIC protocol was performed. The FIC index was calculated according to the following formula:FICI = FIC A + FIC B where FIC A is MIC A & B combined/MIC A and FIC B is MIC A & B combined/[…].

MDR A. baumannii 1033 [14] = assay: as above; assay type: cell-based, Acinetobacter baumannii; details: strain 1033
Procedure: as §2

MDR A. baumannii 3618 [15] = assay: as above; assay type: cell-based, Acinetobacter baumannii; details: strain 3618
Procedure: as §2

MDR A. baumannii 921 [16] = assay: as above; assay type: cell-based, Acinetobacter baumannii; details: strain 921
Procedure: as §2

MDR A. baumannii 1607 [17] = assay: as above; assay type: cell-based, Acinetobacter baumannii; details: strain 1607
Procedure: as §2

MDR A. baumannii 2997 [18] = assay: as above; assay type: cell-based, Acinetobacter baumannii; details: strain 2997
Procedure: as §2

MDR A. baumannii 1019 [19] = assay: as above; assay type: cell-based, Acinetobacter baumannii; details: strain 1019
Procedure: as §2

MDR A. baumannii 2998 [20] = assay: as above; assay type: cell-based, Acinetobacter baumannii; details: strain 2998
Procedure: as §2

MDR A. baumannii 1702 [21] = assay: as above; assay type: cell-based, Acinetobacter baumannii; details: strain 1702
Procedure: as §2

MDR A. baumannii 2088 [22] = assay: as above; assay type: cell-based, Acinetobacter baumannii; details: strain 2088
Procedure: as §2

MDR A. baumannii 2982 [23] = assay: as above; assay type: cell-based, Acinetobacter baumannii; details: strain 2982
Procedure: as §2

MDR A. baumannii 2962 [24] = assay: as above; assay type: cell-based, Acinetobacter baumannii; details: strain 2962
Procedure: as §2

A. baumannii 10591 [25] = assay: Biofilm rupture assay; assay type: cell-based, Acinetobacter baumannii; details: at the lowest concentration (25 µg/mL)
Procedure: For the biofilm inhibition assay, 106 bacterial cells were treated with peptide at various concentrations in MHB media containing 0.2% glucose for 24 h at 37 °C in 96-well plates. The wells were then washed with PBS, treated with 100% methanol for 15 min, and the washes were discarded. Crystal violet solution (0.02%) was added to the dry plates and incubated for 30 min. The wells were then washed and treated with 33% acetic acid, followed by detection at 595 nm. For the biofilm rupture assay, 106 bacterial cells were grown overnight. The residual liquid was discarded, followed by washing with PBS. Next, 100 µL of peptide at different concentrations was added as estimated according to the biofilm inhibition assay.

[26] = Acinetobacter baumannii, media containing 50% human serum, read-out: MBC
[27] = Acinetobacter baumannii, drug alone, two experiments in triplicate

GECIWDAIFHGAKHFLHRLVNP [TP2, tilapia piscidin 2]
negligible or no net positive charge: net positive charge [1]
without antimicrobial activity: antimicrobial activity [1]

C[C@@H](O)[C@H]1C(=O)N2C(C(=O)O)=C(S[C@@H]3CN[C@H](C(=O)N(C)C)C3)[C@H](C)[C@H]12 [Meropenem, meropenem]
25 µg/mL: MBC (MDR A. baumannii 1019 [8]) | MIC (MDR A. baumannii 1019 [8]) | MIC in Combination (MDR A. baumannii 1033 [14]; TP2-6 combined with meropenem) | MIC in Combination (MDR A. baumannii 3618 [15]; TP2-6 combined with meropenem) | MIC (MDR A. baumannii 1607 [17]; [27]) | MIC in Combination (MDR A. baumannii 1607 [17]; TP2-5 combined with meropenem) | MIC in Combination (MDR A. baumannii 1607 [17]; TP2-6 combined with meropenem) | MIC in Combination (MDR A. baumannii 2997 [18]; TP2-6 combined with meropenem, second printed pair of the cells (after the slash)) | MIC (MDR A. baumannii 1019 [19]; [27]) | MIC in Combination (MDR A. baumannii 2962 [24]; TP2-5 combined with meropenem) | MIC in Combination (MDR A. baumannii 2962 [24]; TP2-6 combined with meropenem)
200 µg/mL: MIC in Combination (MDR A. baumannii 14B001; TP2-5 combined with meropenem) | MIC in Combination (MDR A. baumannii 14B001; TP2-6 combined with meropenem) | MIC (MDR A. baumannii 2998 [20]; [27]) | MIC in Combination (MDR A. baumannii 2998 [20]; TP2-5 combined with meropenem) | MIC (MDR A. baumannii 2088 [22]; [27])
50 to 100 µg/mL: MBC (MDR A. baumannii 3618 [4]) | MIC (MDR A. baumannii 3618 [4]) | MBC (MDR A. baumannii 2997 [7]) | MIC (MDR A. baumannii 2997 [7])
> 100 µg/mL: MBC (MDR A. baumannii 14B0091; [26]) | MIC (MDR A. baumannii 14B0091; Acinetobacter baumannii, media containing 50% human serum, read-out: MIC) | MBC (MDR A. baumannii 921 [5]) | MBC (MDR A. baumannii 2998 [9]) | MIC (MDR A. baumannii 2998 [9]) | MBC (MDR A. baumannii 2088 [11]) | MIC (MDR A. baumannii 2088 [11]) | MBC (MDR A. baumannii 2982 [12]) | MIC (MDR A. baumannii 2982 [12])
>100 µg/mL: MBC (MDR A. baumannii 14B0091; normal media) | MIC (MDR A. baumannii 14B0091; normal media)
400 µg/mL: MIC (MDR A. baumannii 14B001; [27])
1.56 µg/mL: MBC (A. baumannii 10591 [2]; media containing 5% lung surfactant) | MIC (A. baumannii 10591 [2]; Acinetobacter baumannii, 10591) | MBC (A. baumannii 10591 [2]; [26]) | MIC (A. baumannii; Acinetobacter baumannii) | MBC (A. baumannii; Acinetobacter baumannii, agent incubated at 40 °C for 1 h prior to the assay, triplicate, two experiments) | MBC (A. baumannii; Acinetobacter baumannii, agent incubated at 60 °C for 1 h prior to the assay, triplicate, two experiments) | MIC (A. baumannii; agent incubated at 60 °C for 1 h prior to the assay, triplicate, two experiments) | MIC in Combination (MDR A. baumannii 1702 [21]; TP2-6 combined with meropenem)
100 µg/mL: MBC (MDR A. baumannii 1033 [3]) | MIC (MDR A. baumannii 921 [5]) | MIC (MDR A. baumannii 3618 [15]; [27]) | MIC (MDR A. baumannii 921 [16]; [27]) | MIC in Combination (MDR A. baumannii 921 [16]; TP2-5 combined with meropenem) | MIC (MDR A. baumannii 2997 [18]; [27]) | MIC in Combination (MDR A. baumannii 2998 [20]; TP2-6 combined with meropenem) | MIC in Combination (MDR A. baumannii 2088 [22]; TP2-5 combined with meropenem) | MIC in Combination (MDR A. baumannii 2088 [22]; TP2-6 combined with meropenem) | MIC (MDR A. baumannii 2982 [23]; [27]) | MIC in Combination (MDR A. baumannii 2982 [23]; TP2-5 combined with meropenem) | MIC in Combination (MDR A. baumannii 2982 [23]; TP2-6 combined with meropenem)
nonsignificant biofilm rupture: biofilm rupture (A. baumannii 10591 [25])
3.12 µg/mL: MBC (A. baumannii; Acinetobacter baumannii, agent incubated at 80 °C for 1 h prior to the assay, triplicate, two experiments) | MIC (A. baumannii; Acinetobacter baumannii, agent incubated at 80 °C for 1 h prior to the assay, triplicate, two experiments, read-out: MIC)
50 µg/mL: MIC (MDR A. baumannii 1033 [3]) | MBC (MDR A. baumannii 1607 [6]) | MIC (MDR A. baumannii 1607 [6]) | MBC (MDR A. baumannii 2962 [13]) | MIC (MDR A. baumannii 2962 [13]) | MBC (A. baumannii; Acinetobacter baumannii, agent incubated at 100 °C for 1 h prior to the assay, triplicate, two experiments) | MIC (A. baumannii; Acinetobacter baumannii, agent incubated at 100 °C for 1 h prior to the assay, triplicate, two experiments, read-out: MIC) | MIC (MDR A. baumannii 1033 [14]; [27]) | MIC in Combination (MDR A. baumannii 1033 [14]; TP2-5 combined with meropenem) | MIC in Combination (MDR A. baumannii 3618 [15]; TP2-5 combined with meropenem) | MIC in Combination (MDR A. baumannii 921 [16]; TP2-6 combined with meropenem) | MIC in Combination (MDR A. baumannii 2997 [18]; TP2-5 combined with meropenem) | MIC in Combination (MDR A. baumannii 2997 [18]; TP2-6 combined with meropenem, first printed pair of the cells (before the slash)) | MIC (MDR A. baumannii 2962 [24]; [27])
12.5 µg/mL: MBC (MDR A. baumannii 1702 [10]) | MIC in Combination (MDR A. baumannii 1019 [19]; TP2-5 combined with meropenem) | MIC in Combination (MDR A. baumannii 1019 [19]; TP2-6 combined with meropenem) | MIC (MDR A. baumannii 1702 [21]; [27]) | MIC in Combination (MDR A. baumannii 1702 [21]; TP2-5 combined with meropenem)
up to 16 fold: increase in MIC versus the initial MIC value (fold) (A. baumannii (10591))
